# Assay results published in ChEMBL document CHEMBL1137172, “A library synthesis of 4-hydroxy-3-methyl-6-phenylbenzofuran-2-carboxylic acid ethyl ester derivatives as anti-tumor agents” (Bioorg Med Chem Lett, 2004).
# What was measured:
# [1] = Effective concentration required for cytotoxicity against human VA-13 cell line; type: functional, cell-based
# [2] = Partition coefficient (logP); type: physicochemical; details: octanol/water
# WI-38 = test: Effective concentration required for cytotoxicity against normal human WI-38 cell line; type: functional, cell-based
logP [2],SMILES,EC50 [1] [µg/mL],EC50 (WI-38) [µg/mL]
–,CCOC(=O)c1oc2cc(-c3c(F)cccc3Cl)cc(O)c2c1C,> 4,–
–,CCOC(=O)c1oc2cc(-c3ccc(OCc4ccccc4)cc3)cc(O)c2c1C,> 4,–
–,CCOC(=O)c1oc2cc(-c3ccccc3O)cc(O)c2c1C,0.31,–
2.7,CCOC(=O)c1oc2cc(-c3cccc(F)c3)cc(O)c2c1C,0.017,–
–,CCOC(=O)c1oc2cc(-c3cccc([N+](=O)[O-])c3)cc(O)c2c1C,0.075,–
2.6,CCOC(=O)c1oc2cc(-c3ccccc3)cc(O)c2c1C,0.04,> 4
2.6,COc1ccc(C(=O)c2oc3cc(-c4ccccc4)cc(O)c3c2C)c(OC)c1,0.04,–
–,CCOC(=O)c1oc2cc(-c3ccccc3OCc3ccccc3)cc(O)c2c1C,> 4,–
–,CCOC(=O)c1oc2cc(-c3cccc(OC)c3)cc(O)c2c1C,0.08,–
–,CCOC(=O)c1oc2cc(-c3ccccc3F)cc(O)c2c1C,0.048,–
–,CCOC(=O)c1oc2cc(-c3cccc(N)c3)cc(O)c2c1C,0.09,–
–,CCOC(=O)c1oc2cc(-c3ccc(C)cc3)cc(O)c2c1C,> 4,–
2.2,COc1cccnc1C(=O)c1oc2cc(-c3ccccc3)cc(O)c2c1C,0.028,–
–,CCOC(=O)c1oc2cc(-c3ccc(Cl)cc3Cl)cc(O)c2c1C,> 4,–
–,CCOC(=O)c1oc2cc(-c3ccc(OCC)cc3)cc(O)c2c1C,> 4,–
–,CCOC(=O)c1oc2cc(-c3cccc(Br)c3)cc(O)c2c1C,0.085,–
–,CCOC(=O)c1oc2cc(-c3ccco3)cc(O)c2c1C,0.18,–
2.6,CCOC(=O)c1[nH]c2cc(-c3ccccc3)cc(O)c2c1C,0.47,–
–,CCOC(=O)c1oc2cc(-c3cccc(C)c3)cc(O)c2c1C,0.08,–
–,CCOC(=O)c1oc2cc(-c3ccc(F)cc3)cc(O)c2c1C,0.37,–

logP [2],SMILES,EC50 [1] [µg/mL],EC50 (WI-38) [µg/mL]
–,CCOC(=O)c1oc2cc(-c3cccc(OCc4ccccc4)c3)cc(O)c2c1C,0.85,–
–,CCOC(=O)c1oc2cc(-c3cccc(O)c3)cc(O)c2c1C,0.52,–
–,CCOC(=O)c1oc2cc(-c3ccc(OCCc4ccccc4)cc3)cc(O)c2c1C,> 4,–
–,CCOC(=O)c1oc2cc(-c3c(Cl)cccc3Cl)cc(O)c2c1C,> 4,–
–,CCOC(=O)c1oc2cc(-c3cccc(C(F)(F)F)c3)cc(O)c2c1C,0.7,–
–,CCOC(=O)c1oc2cc(-c3ccc(Br)cc3)cc(O)c2c1C,> 4,–
–,CCOC(=O)c1oc2cc(-c3ccccc3Cl)cc(O)c2c1C,0.35,–
–,CCOC(=O)c1oc2cc(-c3ccccc3Br)cc(O)c2c1C,0.39,–
2.3,COc1cccnc1C(=O)c1oc2cc(-c3cccc(F)c3)cc(O)c2c1C,0.027,–
–,CCOC(=O)c1oc2cc(-c3ccc(Cl)cc3)cc(O)c2c1C,> 4,–
2.7,COc1ccc(C(=O)c2[nH]c3cc(-c4cccc(F)c4)cc(O)c3c2C)c(OC)c1,0.12,–
–,CCOC(=O)c1oc2cc(C3CCCCC3)cc(O)c2c1C,> 4,–
–,CCOC(=O)c1oc2cc(-c3ccc(OC)c(OC)c3)cc(O)c2c1C,> 4,–
–,CCOC(=O)c1oc2cc(-c3ccc(O)cc3)cc(O)c2c1C,0.075,–
–,CCOC(=O)c1oc2cc(-c3ccccc3OC)cc(O)c2c1C,0.38,–
2.7,COc1ccc(C(=O)c2oc3cc(-c4cccc(F)c4)cc(O)c3c2C)c(OC)c1,0.03,–
–,CCOC(=O)c1oc2cc(-c3cccs3)cc(O)c2c1C,0.16,–
–,CCOC(=O)c1oc2cc(-c3ccc(OC)cc3)cc(O)c2c1C,> 4,–
–,CCOC(=O)c1oc2cc(-c3cccc(Cl)c3)cc(O)c2c1C,0.08,–
–,CCOC(=O)c1oc2cc(CC(C)(C)C)cc(O)c2c1C,> 4,–
